The series in a line: Release of model compounds from sintered electrospun PCL fiber capsules. The settings on record: for ranking of release of model compounds: controlled by molecular weight and available porosity. In kind it is physicochemical. From the text:
Electrospinning has been used widely for drug delivery due to its versatility and ease of modification of fiber properties. However, total drug loading and release is typically limited by the inherent surface area. Instead a sintering of electrospun fiber to create injectable capsules favoring controlled delivery of low molecular weight compounds was used. As electrospun, the fully resorbable, biocompatible polymer polycaprolactone (PCL) retains its morphology out to 1,042 days of in vitro exposure, illustrating its potential for extended performance. Sintering decreases the pore size by 10- and 28-fold following 56 and 57° C. exposures, respectively. After the 58 and 59° C. exposures, these PCL capsules lose all apparent surface porosity but entrapped pores are observed in the 58° C. cross-section. […] The model drug adsorption on the available surface area (57 versus 56° C.) and entrapped porosity (59 versus 58° C.) could have also attributed to the observed ranking of release rates.
FIGS. 5A-5H show images of microstructural transformations at different temperatures (56° C. to 59° C.). […] Little difference between 56° C. and 57° C. sintering and unsintered fiber˜100% release. […] At 58° C. and 59° C. release is flipped: faster release at lower porosity. RhB is a relatively small molecule. Intermittent adsorption to surface of remaining porosity greatly slows release. […] No condition achieves˜100% release out to 12 days. […] At 58° C. and 59° C. release are still flipped but not as dramatic: faster release at lower porosity. Intermittent adsorption to surface of remaining porosity continues to slow release but increased molecular weight decreases net differences in diffusion. […] Much larger molecule needs fully open porosity for any release to occur. […] Diffusion through dense PCL is zero. […] FIGS. 11A-11B show relatively little porosity remains. This makes a substantial difference in diffusion and surface controlled release. Sequestration within the wall. FIGS. 12A-12D and 13A-13F show controlled salt confinement for controlled porosity using HEPES salt. […] Extraction was performed using deionized water at 37° C. for 24 hours plus gentle shaking. In most cases extraction was nearly complete. It is likely that Na^+ was retained and has measurable effects on mechanical properties.

As to `O=C1OC2(c3cc(I)c(O)c(I)c3Oc3c2cc(I)c(O)c3I)c2c(Cl)c(Cl)c(Cl)c(Cl)c21` [RB, Rose Bengal], the “ranking of release of model compounds” value is listed as “RhB>RB>>BSA-FITC”. In addition, the “percent RB release of 200 μg” value (any sintering condition, out to 12 days) is recorded as less than 100%. Also, the RB release profile entry (capsules sintered at 58° C. and 59° C.) is on record as “linear release out to 12 days”.
In the case of `CCN(CC)c1ccc2c(-c3ccccc3C(=O)O)c3ccc(=[N+](CC)CC)cc-3oc2c1.[Cl-]` [RhB, Rhodamine B], the “ranking of release of model compounds” value is on record as “RhB>RB>>BSA-FITC”. For the same molecule, the “percent RhB release of 200 μg” value (56° C. and 57° C. sintering and unsintered fiber) is reported as roughly 100%. In addition, the RhB release profile result (capsules sintered at 58° C.) is on record as “linear release out to 12 days”.
In the case of “albumin-fluorescein isothiocyanate conjugate from bovine serum [BSA-FITC]”, the “ranking of release of model compounds” value is recorded as “RhB>RB>>BSA-FITC”. For the setting “dense PCL wall”, the “Diffusion through dense PCL” value is given as “zero”. Besides, for the setting “release of 200 μg versus time, needs fully open porosity”, the BSA-FITC release profile entry was “Release plateaus quickly”.

Values taken from patent publication US20250090820A1, “LOCALIZED DRUG DELIVERY TO PREVENT VASCULAR RESTENOSIS” (Ohio State Innovation Foundation, priority 2022, published 2025).
